Numbers after ± are expanded uncertainties.
Legend:
[1] = 101.3 kPa, Liquid, Pycnometric method
[2] = xn = mol fraction of the nth substance listed; conditions: 101.3 kPa, Liquid, Pycnometric method, x1 = 1

Row | mass density ([1]; 291.15 K) [kg/m3] | mass density ([1]; 293.15 K) [kg/m3] | mass density ([1]; 298.15 K) [kg/m3] | mass density ([1]; 303.15 K) [kg/m3] | mass density ([1]; 308.15 K) [kg/m3] | mass density ([2]; 291.15 K) [kg/m3] | mass density ([2]; 293.15 K) [kg/m3] | mass density ([2]; 298.15 K) [kg/m3] | mass density ([2]; 303.15 K) [kg/m3] | mass density ([2]; 308.15 K) [kg/m3] | SMILES
1 | 966.52 ± 2.6 | 964.88 ± 2.6 | 960.29 ± 2.6 | 955.76 ± 2.6 | 951.1 ± 2.6 |  |  |  |  |  | COCCO [2-methoxyethan-1-ol]
2 |  |  |  |  |  | 966.52 ± 2.6 | 964.88 ± 2.6 | 960.29 ± 2.6 | 955.76 ± 2.6 | 951.1 ± 2.6 | COCCO [2-methoxyethan-1-ol] + CCCNCCC
3 | 738.47 ± 2 | 737.2 ± 2 | 732.56 ± 2 | 728.2 ± 2 | 723.64 ± 2 |  |  |  |  |  | CCCNCCC [dipropylamine]

Reference: the NIST ThermoML archive (doi:10.1021/je040006u)
